Patent EP0726072A2, “Composition for the treatment of hypertension and congestive heart failure, containing an angiotensin II antagonist and an endopeptidase inhibitor” (BRISTOL-MYERS SQUIBB COMPANY, priority 1995, dated 1996)

Test system: 1K1C hypertensive dogs
Assay: Haemodynamic, renal and hormonal effects in conscious 1-kidney-1-clip hypertensive dogs
Type: in vivo
Protocol: The studies described in this experiment were conducted in dogs that had been rendered hypertensive by prior unilateral nephrectomy and constriction of the remaining renal artery. This model is characterized by normal basal levels of plasma renin activity and is relatively resistant to the anti-hypertensive activity of angiotensin converting enzyme inhibitors and AT1 receptor antagonists.
The following experiments were conducted in fasted 1K1C hypertensive dogs lightly restrained in standard canine slings. An indwelling arterial catheter was accessed via a subcutaneous port for measurement of blood pressure via a Gould-Statham pressure transducer. Mean arterial pressure (MAP) was continuously recorded on a Gould chart writer and stored electronically using a Po-Ne-Mah data acquisition system. During each study, urine was collected at 20 minute intervals via a Foley bladder catheter for determination of urine volume. The concentrations of urinary sodium and potassium were measured using ion-selective electrodes and their rates of urinary excretion (µEq/min) were calculated. Glomerular filtration rate (GFR) and effective renal plasma flow (ERPF) were determined by the renal clearances of exogenous creatinine and para-aminohippuric acid (PAH), respectively. The concentrations of creatinine and PAH in sequential samples of urine and plasma were determined by spectrophotometric assays and the clearances were calculated by the standard formula.
Arterial blood samples were drawn at the end of the control period and at 60 minute intervals thereafter for determination of the plasma concentrations of atrial natriuretic peptide (ANP), cyclic GMP and plasma renin activity (PRA) by separate radioimmunoassays. The plasma and urine samples were preserved and the assays were conducted according to standard radioimmunoassay procedures. Urinary excretion rates of cyclic GMP and ANP were calculated and expressed as pmol/min and fmol/min, respectively.
In each study, baseline measurements were obtained during two 20 minute control periods. One of the treatments was then administered and sampling continued at 20 minute intervals for three hours.
To minimize inter-animal variability, each data point was expressed as the change from the average control value for that parameter. Significant differences among treatments were identified by analysis of variance for repeated measures. […] Results are given as mean ± SEM.

[1] = 20 min after treatment, 30 µmol/kg iv of each agent
[2] = 40 min after treatment, 30 µmol/kg iv of each agent
[3] = 60 min after treatment, 30 µmol/kg iv of each agent
[4] = 80 min after treatment, 30 µmol/kg iv of each agent
[5] = 100 min after treatment, 30 µmol/kg iv of each agent
[6] = 120 min after treatment, 30 µmol/kg iv of each agent
[7] = 140 min after treatment, 30 µmol/kg iv of each agent
[8] = 160 min after treatment, 30 µmol/kg iv of each agent
[9] = 180 min after treatment, 30 µmol/kg iv of each agent

## CCCCC1=NC2(CCCC2)C(=O)N1Cc1ccc(-c2ccccc2-c2nnn[nH]2)cc1 [BMS 186295, 2-butyl-6,7,8,9-tetrahydro-3-[[2'-(1H-tetrazol-5-yl)[1,1'-biphenyl]-4-yl]-methyl]-1,3-diazaspiro[4.4]nonan-4-one]
30 µmol/kg iv of each agent, cumulative over 3 hours
  increase in the amount of sodium excreted during the 3 hours after injection: 5.4±1.0 mEq/3 hr
[1]
  ANP Excretion, Change from control: -0.7 ± 0.5 fmol/min
  Cyclic GMP Excretion, Change from control: -372 ± 240 pmol/min
  Effective Renal Plasma Flow, Change from control: -68 ± 30 mL/min
  Glomerular Filtration Rate, Change from control: -4 ± 2 mL/min
  Mean Arterial Pressure, Change from control: -1±1 mm Hg
  Sodium Excretion, Change from control: 23±9 µEq/min
  Urine Volume, Change from control: 0.01 ± 0.07 mL/min
[2]
  ANP Excretion, Change from control: -0.6 ± 0.5 fmol/min
  Cyclic GMP Excretion, Change from control: -277 ± 255 pmol/min
  Effective Renal Plasma Flow, Change from control: -54 ± 35 mL/min
  Glomerular Filtration Rate, Change from control: -2 ± 5 mL/min
  Mean Arterial Pressure, Change from control: -10±1 mm Hg
  Sodium Excretion, Change from control: 41±13 µEq/min
  Urine Volume, Change from control: 0.09 ± 0.14 mL/min
[3]
  ANP Excretion, Change from control: -0.2 ± 0.3 fmol/min
  Cyclic GMP Excretion, Change from control: -150 ± 203 pmol/min
  Effective Renal Plasma Flow, Change from control: -35 ± 24 mL/min
  Glomerular Filtration Rate, Change from control: 6 ± 0 mL/min
  Mean Arterial Pressure, Change from control: -8±2 mm Hg
  Plasma Renin Activity, Change from control: 1.28±0.51 pmol AI/ml/hr
  Sodium Excretion, Change from control: 36±8 µEq/min
  Urine Volume, Change from control: 0.12 ± 0.07 mL/min
[4]
  ANP Excretion, Change from control: -0.4 ± 0.3 fmol/min
  Cyclic GMP Excretion, Change from control: -309 ± 199 pmol/min
  Effective Renal Plasma Flow, Change from control: -13 ± 9 mL/min
  Glomerular Filtration Rate, Change from control: 5 ± 2 mL/min
  Mean Arterial Pressure, Change from control: -5±2 mm Hg
  Sodium Excretion, Change from control: 27±6 µEq/min
  Urine Volume, Change from control: 0.05 ± 0.06 mL/min
[5]
  ANP Excretion, Change from control: -0.6 ± 0.4 fmol/min
  Cyclic GMP Excretion, Change from control: -266 ± 193 pmol/min
  Effective Renal Plasma Flow, Change from control: -1 ± 10 mL/min
  Glomerular Filtration Rate, Change from control: 3 ± 4 mL/min
  Mean Arterial Pressure, Change from control: -4±1 mm Hg
  Sodium Excretion, Change from control: 22±3 µEq/min
  Urine Volume, Change from control: -0.02 ± 0.09 mL/min
[6]
  ANP Excretion, Change from control: -0.5 ± 0.4 fmol/min
  Cyclic GMP Excretion, Change from control: -283 ± 236 pmol/min
  Effective Renal Plasma Flow, Change from control: -8 ± 17 mL/min
  Glomerular Filtration Rate, Change from control: 4 ± 3 mL/min
  Mean Arterial Pressure, Change from control: -1±2 mm Hg
  Plasma Renin Activity, Change from control: 1.49±0.57 pmol AI/ml/hr
  Sodium Excretion, Change from control: 30±4 µEq/min
  Urine Volume, Change from control: -0.02 ± 0.10 mL/min
[7]
  ANP Excretion, Change from control: -0.6 ± 0.4 fmol/min
  Cyclic GMP Excretion, Change from control: -449 ± 206 pmol/min
  Effective Renal Plasma Flow, Change from control: 8 ± 3 mL/min
  Glomerular Filtration Rate, Change from control: 0 ± 5 mL/min
  Mean Arterial Pressure, Change from control: -1±2 mm Hg
  Sodium Excretion, Change from control: 28±7 µEq/min
  Urine Volume, Change from control: -0.07 ± 0.12 mL/min
[8]
  ANP Excretion, Change from control: -0.5 ± 0.4 fmol/min
  Cyclic GMP Excretion, Change from control: -391 ± 199 pmol/min
  Effective Renal Plasma Flow, Change from control: -14 ± 12 mL/min
  Glomerular Filtration Rate, Change from control: 0 ± 7 mL/min
  Mean Arterial Pressure, Change from control: 0±2 mm Hg
  Sodium Excretion, Change from control: 30±7 µEq/min
  Urine Volume, Change from control: -0.07 ± 0.16 mL/min
[9]
  ANP Excretion, Change from control: -0.6 ± 0.4 fmol/min
  Cyclic GMP Excretion, Change from control: -611 ± 346 pmol/min
  Effective Renal Plasma Flow, Change from control: -12 ± 11 mL/min
  Glomerular Filtration Rate, Change from control: 0 ± 4 mL/min
  Mean Arterial Pressure, Change from control: -1±3 mm Hg
  Plasma Renin Activity, Change from control: 1.24±0.62 pmol AI/ml/hr
  Sodium Excretion, Change from control: 30±2 µEq/min
  Urine Volume, Change from control: -0.02 ± 0.07 mL/min
Control, before treatment
  ANP Excretion: 1.5 ± 0.6 fmol/min
  Cyclic GMP Excretion: 1122 ± 389 pmol/min
  Effective Renal Plasma Flow: 127 ± 41 mL/min
  Glomerular Filtration Rate: 45 ± 10 mL/min
  Mean Arterial Pressure: 157±7 mm Hg
  Plasma Renin Activity: 0.55±0.07 pmol AI/ml/hr
  Sodium Excretion: 18±2 µEq/min
  Urine Volume: 0.43 ± 0.16 mL/min
Summary of TABLE 2, 30 µmol/kg iv of each agent, 3 hours
  sodium excretion, effect in words: increased
Summary of TABLE 3, 30 µmol/kg iv of each agent, 3 hours
  urine volume, effect in words: increased
Summary of TABLE 6, 30 µmol/kg iv of each agent
  Urinary excretion of ANP, effect in words: did not affect
Summary of TABLE 8, 30 µmol/kg iv of each agent
  PRA, effect in words: significantly increased
Summary of Table 1, 30 µmol/kg iv of each agent, 3 hours
  mean arterial pressure (MAP), effect in words: signigicantly reduced
